Structures can show the parent of a compound that is named as a salt.
Key:
sRAGE binding to S100b = target: T1, sRAGE binding to S100b (Homo sapiens, UniProt Q15109); assay: RAGE binding assay (ELISA), S100b as the RAGE ligand; details: compounds tested in hydrochloride salt form, concentration at which 50% signal has been inhibited
T1 construct: extracellular domain can be isolated by proteolysis of RAGE to generate soluble RAGE (sRAGE) comprised of the V and C domains
Description: (§1) The following assay method may be used to identify compounds of Formula (I) or pharmaceutically acceptable salts thereof which are useful as inhibitors of binding of physiological RAGE ligands, such as S100b and β-amyloid, to RAGE.
(§2) S100b, β-amyloid, or CML (500 ng/100 μL/well) in 100 mM sodium bicarbonate/sodium carbonate buffer (pH 9.8) is loaded onto the wells of a NUNC Maxisorp flat bottom 96-well microtitre plate. The plate is incubated at 4° C. overnight. The wells are aspirated and treated with 50 mM imidazole buffer saline (pH 7.2) (with 5 mM CaCl2/MgCl2) containing 1% bovine serum albumin (BSA) (300 μL/well) for 1 h at RT. The wells are aspirated.
(§3) Test compounds are dissolved in nanopure water (concentration: 10-100 μM). DMSO may be used as co-solvent. 25 μL of test compound solution in 4% DMSO is added, along with 75 μL sRAGE (6 nM FAC) to each well and samples are incubated for 1 h at 37° C. The wells are washed several times with 155 mM NaCl pH 7.2 buffer saline and are soaked for several seconds between each wash.
(§4) Non-radioactive detection is performed by adding:
(§5) 10 μL Biotinylated goat F(ab′)2 Anti-mouse IgG. (8.0×10-4 mg/mL, FAC), 5 μL Alk-phos-Streptavidin (3×10-3 mg/mL FAC), 0.42 μL per 5 mL Monoclonal antibody for sRAGE (FAC 6.0×10-3 mg/mL) to 5 mL 50 mM imidazole buffer saline (pH 7.2) containing 0.2% bovine serum albumin and 5 mM CaCl2. The mixture is incubated for 30 minutes at RT.
(§6) 100 μL of complex is added to each well and incubation is allowed to proceed at rt for 1 h. Wells are washed several times with wash buffer and soaked several seconds between each wash. 100 μL 1 mg/mL (pNPP) in 1 M diethanolamine (pH adjusted to 9.8 with HCl) is added. Color is allowed to develop in the dark for 30 min to 1 h at rt. The reaction is quenched with 10 μL of stop solution (0.5-1.0 N NaOH in 50% ethanol) and the absorbance is measured spectrophotometrically with a microplate reader at 405 nm.
(§7) The IC50 (μM) value in the ELISA assay represents the concentration of compound at which 50% signal has been inhibited.

[1] = target: T2, sRAGE binding to β-amyloid (Homo sapiens, UniProt Q15109); assay: RAGE binding assay (ELISA), β-amyloid as the RAGE ligand; details: compounds tested in hydrochloride salt form, concentration at which 50% signal has been inhibited
T2 construct: extracellular domain can be isolated by proteolysis of RAGE to generate soluble RAGE (sRAGE) comprised of the V and C domains
T2 sequence (Q15109 23-342 limits assumed): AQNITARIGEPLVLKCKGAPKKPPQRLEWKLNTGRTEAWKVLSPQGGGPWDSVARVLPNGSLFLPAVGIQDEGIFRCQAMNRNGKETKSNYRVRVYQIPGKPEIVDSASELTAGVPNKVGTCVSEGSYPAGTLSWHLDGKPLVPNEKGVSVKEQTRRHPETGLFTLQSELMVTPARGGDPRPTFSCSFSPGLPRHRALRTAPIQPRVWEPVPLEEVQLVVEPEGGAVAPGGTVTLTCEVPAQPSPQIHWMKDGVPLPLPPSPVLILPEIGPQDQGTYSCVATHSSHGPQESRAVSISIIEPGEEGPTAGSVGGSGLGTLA
Description: as §1, §2, §3, §4, §5, §6, §7

T1 sequence (Q15109 23-342 limits assumed): as above

IC50 (sRAGE binding to S100b) | IC50 [1] | Compound
3940 nM | 6260 nM | CCCCc1nnc(OC2CCN(C)CC2)cc1-c1ccc(OC(C)C)cc1 [Example 49, 3-Butyl-4-(4-isopropoxy-phenyl)-6-(1-methyl-piperidin-4-yloxy)-pyridazine dihydrochloride]
1420 nM | 1960 nM | CCCCc1nnc(OC2CCN(C)CC2)cc1-c1ccc(OCc2ccc(Cl)cc2)cc1 [Example 50, 3-butyl-4-[4-(4-chloro-benzyloxy)-phenyl]-6-(1-methyl-piperidin-4-yloxy)-pyridazine dihydrochloride]
2940 nM | 2620 nM | CCCCc1nnc(OC2CCN(C)CC2)cc1-c1ccc(OC2CCCC2)cc1 [Example 51, 3-butyl-4-(4-cyclopentyloxy-phenyl)-6-(1-methyl-piperidin-4-yloxy)-pyridazine dihydrochloride]
650 nM | 690 nM | CCCCc1nnc(OC2CCN(C)CC2)cc1-c1ccc(OCCC2CCCCC2)cc1 [Example 52, 3-butyl-4-[4-(2-cyclohexyl-ethoxy)-phenyl]-6-(1-methyl-piperidin-4-yloxy)-pyridazine dihydrochloride]
2510 nM | 2020 nM | CCCCc1nnc(OC2CCN(C)CC2)cc1-c1ccc(OCc2cccnn2)cc1 [Example 53, 3-butyl-6-(1-methyl-piperidin-4-yloxy)-4-[4-(pyridazin-3-ylmethoxy)-phenyl]-pyridazine trihydrochloride]
3650 nM | 5450 nM | CCCCc1nnc(OC2CCN(C)CC2)cc1-c1ccc(OCC2CCOCC2)cc1 [Example 54, 3-butyl-6-(1-methyl-piperidin-4-yloxy)-4-[4-(tetrahydro-pyran-4-ylmethoxy)-phenyl]-pyridazine dihydrochloride]
3680 nM | 9180 nM | CCCCc1nnc(OC2CCN(C)CC2)cc1-c1ccc(OCC2CCN(C(C)=O)CC2)cc1 [Example 55, 1-(4-{4-[3-butyl-6-(1-methyl-piperidin-4-yloxy)-pyridazin-4-yl]-phenoxymethyl}-piperidin-1-yl)-ethanone dihydrochloride]
1800 nM | 2430 nM | CCCCc1nnc(OC2CCN(C)CC2)cc1-c1ccc(OCC2CCC(C(=O)N(C)C)CC2)cc1 (stereo not shown) [Example 56, 4-{4-[3-butyl-6-(1-methyl-piperidin-4-yloxy)-pyridazin-4-yl]-phenoxymethyl}-cyclohexanecarboxylic acid dimethylamide dihydrochloride]
3270 nM | 4560 nM | CCCCc1nnc(OC2CCN(C)CC2)cc1-c1ccc(Oc2ccc(C)nn2)cc1 [Example 57, 3-butyl-6-(1-methyl-piperidin-4-yloxy)-4-[4-(6-methyl-pyridazin-3-yloxy)-phenyl]-pyridazine trihydrochloride]
740 nM | 760 nM | CCCCc1nnc(OC2CCN(C)CC2)c(C(F)(F)F)c1-c1ccc(OC2CCCCC2)cc1 [Example 58, 3-butyl-4-(4-cyclohexyloxy-phenyl)-6-(1-methyl-piperidin-4-yloxy)-5-trifluoromethyl-pyridazine dihydrochloride]
4790 nM | 3160 nM | CN1CCC(Oc2cc(-c3ccc(OC4CCCCC4)cc3)c(C3CC3)nn2)CC1 [Example 59, 4-(4-cyclohexyloxy-phenyl)-3-cyclopropyl-6-(1-methyl-piperidin-4-yloxy)-pyridazine dihydrochloride]
1130 nM | 1830 nM | CN1CCC(Oc2cc(-c3ccc(OC4CCCCC4)cc3)c(C3CCCCC3)nn2)CC1 [Example 60, 3-cyclohexyl-4-(4-cyclohexyloxy-phenyl)-6-(1-methyl-piperidin-4-yloxy)-pyridazine dihydrochloride]
3400 nM | 3720 nM | CN1CCC(Oc2cc(-c3ccc(OC4CCCCC4)cc3)c(C3CCC3)nn2)CC1 [Example 61, 3-cyclobutyl-4-(4-cyclohexyloxy-phenyl)-6-(1-methyl-piperidin-4-yloxy)-pyridazine dihydrochloride]
3630 nM | 5000 nM | CCCCc1nnc(OC2CCN(C)CC2)cc1-c1ccc(OC2CCCCC2)c(NC(C)=O)c1 [Example 62, N-{5-[3-butyl-6-(1-methyl-piperidin-4-yloxy)-pyridazin-4-yl]-2-cyclohexyloxy-phenyl}-acetamide dihydrochloride]
840 nM | 680 nM | CCCCc1nnc(OC2CCN(C)CC2)cc1-c1ccc(OC2CCCCC2)c(N(CC(C)C)C(C)=O)c1 [Example 63, N-{5-[3-butyl-6-(1-methyl-piperidin-4-yloxy)-pyridazin-4-yl]-2-cyclohexyloxy-phenyl}-N-isobutyl-acetamide dihydrochloride]
880 nM | 840 nM | CCCCc1nnc(OC2CCN(C)CC2)cc1-c1ccc(OC2CCCCC2)c(N(CC(C)C)S(C)(=O)=O)c1 [Example 64, N-{5-[3-butyl-6-(1-methyl-piperidin-4-yloxy)-pyridazin-4-yl]-2-cyclohexyloxy-phenyl}-N-isobutyl-methanesulfonamide dihydrochloride]
2120 nM | 1780 nM | CCCCc1nnc(OC2CCN(C)CC2)cc1-c1ccc(OC2CCCCC2)c(-c2ncco2)c1 [Example 65, 3-Butyl-4-(4-cyclohexyloxy-3-oxazol-2-yl-phenyl)-6-(1-methyl-piperidin-4-yloxy)-pyridazine dihydrochloride salt]
1470 nM | 1830 nM | CCCCc1nnc(OC2CCN(C)CC2)cc1-c1ccc(OC2CCCCC2)c(C(C)=O)c1 [Example 66, 1-{5-[3-Butyl-6-(1-methyl-piperidin-4-yloxy)-pyridazin-4-yl]-2-cyclohexyloxy-phenyl}-ethanone]
1700 nM | 3200 nM | CCCCc1nnc(OC2CCN(C)CC2)cc1-c1ccc(OC2CCCCC2)c(C#N)c1 [Example 67, 5-[3-Butyl-6-(1-methyl-piperidin-4-yloxy)-pyridazin-4-yl]-2-cyclohexyloxy-benzonitrile dihydrochloride]
2040 nM | 2490 nM | CCCCc1nnc(OC2CCN(C)CC2)cc1-c1ccc(OC2CCCCC2)c(N2CCCC2=O)c1 [Example 68, 1-{5-[3-Butyl-6-(1-methyl-piperidin-4-yloxy)-pyridazin-4-yl]-2-cyclohexyloxy-phenyl}-pyrrolidin-2-one dihydrochloride]
730 nM | 790 nM | CCCCc1nnc(OC2CCN(C)CC2)cc1-c1ccc(OC2CCCCC2)c(-c2cnn(C)c2)c1 [Example 69, 3-Butyl-4-[4-cyclohexyloxy-3-(1-methyl-1H-pyrazol-4-yl)-phenyl]-6-(1-methyl-piperidin-4-yloxy)-pyridazine dihydrochloride]
2170 nM | 2940 nM | CCCCc1nnc(OC2CCN(C)CC2)cc1-c1ccc(OC2CCCCC2)c(-c2nnnn2C)c1 [Example 70, 3-Butyl-4-[4-cyclohexyloxy-3-(1-methyl-1H-tetrazol-5-yl)-phenyl]-6-(1-methyl-piperidin-4-yloxy)-pyridazine dihydrochloride]
1130 nM | 1590 nM | CCCCc1nnc(OC2CCN(C)CC2)cc1-c1ccc(OC2CCCCC2)c(C(=O)OC)c1 [Example 71, 5-[3-Butyl-6-(1-methyl-piperidin-4-yloxy)-pyridazin-4-yl]-2-cyclohexyloxy-benzoic acid methyl ester dihydrochloride]
1690 nM | 1200 nM | CCCCc1nnc(OC2CCN(C)CC2)cc1-c1ccc(OC2CCCCC2)c(-c2cnoc2)c1 [Example 72, 3-Butyl-4-(4-cyclohexyloxy-3-isoxazol-4-yl-phenyl)-6-(1-methyl-piperidin-4-yloxy)-pyridazine dihydrochloride]
1740 nM | 1040 nM | CCCCc1nnc(OC2CCN(C)CC2)cc1-c1ccc(OC2CCCCC2)c(OC)c1 [Example 73, 3-Butyl-4-(4-cyclohexyloxy-3-methoxy-phenyl)-6-(1-methyl-piperidin-4-yloxy)-pyridazine dihydrochloride]
1640 nM | 1160 nM | CCCCc1nnc(OC2CCN(C)CC2)cc1-c1ccc(OC2CCCCC2)c(O)c1 [Example 74, 5-[3-Butyl-6-(1-methyl-piperidin-4-yloxy)-pyridazin-4-yl]-2-cyclohexyloxy-phenol dihydrochloride]
